Source: ChEMBL document CHEMBL1129132, “8-amino-6-(arylsulphonyl)-5-nitroquinolines: novel nonpeptide neuropeptide Y1 receptor antagonists” (Bioorg Med Chem Lett, 1996)

The molecules below were run against T1, Neuropeptide Y receptor type 1 (Homo sapiens, UniProt P25929) (assay: Compound was tested for binding affinity against neuropeptide Y1 (NPY1) receptor from SK-N-MC membranes using [125I]PYY as radioligand).
T1 sequence (P25929 whole entry): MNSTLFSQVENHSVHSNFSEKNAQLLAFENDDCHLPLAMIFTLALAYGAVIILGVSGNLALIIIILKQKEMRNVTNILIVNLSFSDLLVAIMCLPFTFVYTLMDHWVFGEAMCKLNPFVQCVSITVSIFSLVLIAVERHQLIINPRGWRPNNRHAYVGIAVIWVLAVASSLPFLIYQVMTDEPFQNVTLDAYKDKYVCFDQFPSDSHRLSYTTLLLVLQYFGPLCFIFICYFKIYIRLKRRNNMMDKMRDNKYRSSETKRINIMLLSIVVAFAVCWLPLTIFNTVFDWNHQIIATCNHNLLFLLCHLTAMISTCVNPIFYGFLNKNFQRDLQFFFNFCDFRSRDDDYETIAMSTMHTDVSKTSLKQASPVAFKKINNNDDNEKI

Ki	SMILES
> 10 µM	Nc1ccc(Sc2cc(N)c3ncccc3c2[N+](=O)[O-])cc1
0.282 µM	Nc1ccc(S(=O)(=O)c2cc(N)c3ncccc3c2[N+](=O)[O-])cc1
> 10 µM	Nc1ccc(S(=O)(=O)c2cc(N)c3ncccc3c2N)cc1
1.25 µM	Nc1ccc([S+]([O-])c2cc(N)c3ncccc3c2[N+](=O)[O-])cc1 (configuration not stated)

Second part, the molecule before the results:

SMILES	Ki
Cc1cc(S(=O)(=O)c2ccccc2)c([N+](=O)[O-])c2cccnc12	> 10 µM
CNc1cc(S(=O)(=O)c2ccccc2)c([N+](=O)[O-])c2cccnc12	> 10 µM
CS(=O)(=O)c1cc(N)c2ncccc2c1[N+](=O)[O-]	> 10 µM
Nc1ccc(S(=O)(=O)c2cc(N)c3ncccc3c2)cc1	> 10 µM
Nc1ccc(S(=O)(=O)c2ccc3ncccc3c2[N+](=O)[O-])cc1	> 10 µM
Nc1cc(NS(=O)(=O)c2ccccc2)c([N+](=O)[O-])c2cccnc12	> 10 µM

These molecules were tested against T2, Neuropeptide Y receptor type 2 (Rattus norvegicus, UniProt Q9ERC0) (assay: Compound was tested for binding affinity against neuropeptide Y2 (NPY2) receptor from rat hippocampi.).
T2 sequence (Q9ERC0 whole entry): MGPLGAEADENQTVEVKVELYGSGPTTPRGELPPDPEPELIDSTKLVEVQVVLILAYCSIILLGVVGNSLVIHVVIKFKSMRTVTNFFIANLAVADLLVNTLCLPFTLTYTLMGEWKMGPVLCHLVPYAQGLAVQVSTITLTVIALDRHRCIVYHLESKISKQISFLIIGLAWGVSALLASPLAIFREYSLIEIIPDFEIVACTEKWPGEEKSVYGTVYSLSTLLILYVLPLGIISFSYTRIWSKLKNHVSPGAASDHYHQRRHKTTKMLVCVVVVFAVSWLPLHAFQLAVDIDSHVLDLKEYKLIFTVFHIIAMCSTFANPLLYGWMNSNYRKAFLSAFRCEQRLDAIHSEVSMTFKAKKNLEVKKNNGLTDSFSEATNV
Format: tissue-based, Hippocampus

Ki	IC50	SMILES
> 10 µM		Nc1ccc(S(=O)(=O)c2cc(N)c3ncccc3c2[N+](=O)[O-])cc1
	10 µM	CC(C)c1ccccc1S(=O)(=O)c1cc(N)c2ncccc2c1[N+](=O)[O-]
